Legend:
[1] = Cell-free in vitro competition test for Fe(III) versus antinutrients; assay type: physicochemical; conditions: for recovery of Fe as 1:3 Fe-ligand complex in competition with non-cathecolic polyphenols (avg.): average; for recovery of Fe as 1:3 Fe-ligand complex in competition with non-cathecolic polyphenols (avg.) / recovery of Fe as 1:3 Fe-ligand complex in competition with oxalates / recovery of Fe as 1:3 Fe-ligand complex in competition with phosphate: vs citrate ref standard of 100% recovery; for recovery of Fe as 1:3 Fe-ligand complex in competition with oxalates / recovery of Fe as 1:3 Fe-ligand complex in competition with phosphate: sequential pH 6/2.5/6.5, CH2Cl2 extract read at 405 nm; for iron competition versus phytate and catecholic polyphenols: without enzymatic co-treatment
Method: The method evaluates the competitive affinity for Fe(III) of maltol/ethyl maltol versus antinutrients, i.e. the iron sequestering agents occurring in food, in a 3-step method which adopts a sequential pH 6/2.5/6.5 mimic the pHs occurring in stomach at fast, during gastro digestion and in duodenum, respectively. Stock solution at 10 mM conc. were prepared by dissolving in water the following reagents: (a) antinutrient series: EDTA (EDTA=negative control), ellagic acid (ELL), gallic acid (GAL), hesperidin (HES), naringin (NAR), monosodium oxalate (OXA), disodium phosphate (PHO), quercetin (QUE), rutin (RUT), tannic acid (TAN), phytic acid sodium salt (PHY); wherein the cathecolic polyphenols (CPP) are presented as pooled (b) maltol (MAL) and ethyl maltol (EMAL); […] In brief, in 15-ml tubes were combined 100 μl of 10 mM FAC (1 μmol); 1 ml of 10 mM CaCl2 (10 μmol); 1 ml of 10 mM 3-hydroxy-4-pyrone (10 μmol); 1 ml of each antinutrient at 10 mM (10 μmol); and 2 ml of water to 5 ml final volume. No antinutrients were introduced in the positive control. Tubes were oscillated at 30 rpm for 2.5 hours, of which: 1 hour at initial pH 6-6.5; 1 hour at pH 2-2.5 (by 50 μl 1N HCl), and final 30 min. at pH around 6.5 (by 50 μl 1N NaOH). The tubes were then added with 2 ml di CH2Cl2 and shacked for 2 min. […] Residues were taken up with 2 ml water and read at 405 nm. Absorbance calibration: r=0.30 and linear correlation within the 40-4 μM range (r2=1; […] on 0-intercept).

[2] = In vitro digestion model: extraction of dietary non-heme iron from vegetal foods; conditions: for yield of extracted iron from vegetal food: canned soybean, red beans, peas, 1 ml 10 mM, versus water control; for surplus of yields of gastroactive (GA) model over gastropassive (GP) condition: with versus without classic digestive enzymes
Method: The method assessed the extraction of dietary non-heme iron by maltol or ethyl maltol in simulated digestion of vegetal foods, with/without digestive enzymes. In brief, samples (10 g) of vegetable foods, viz. canned soybean, red beans and peas were smashed in mortar with 5 ml water. Specimen were combined in 50 ml tubes supplemented with HCl solution (pH 2.5) of mix of classic digestive enzymes consisting in: 2 mg pepsin 1:3000; 0.5 mg lipase 200 FIP/g; and bile enzymes, i.e. 2.5 mg bovine bile extract; 1.25 pancreatin extract 4:1 in “gastroactive” model (“GA”). A parallel test named “gastropassive” use non enzymes. Tube were added with 1 ml maltol/ethyl maltol 10 mM, or water in control, and underwent 2 hours of slow motion (60 o/min) at controlled temperature. The pH was finally adjusted to 6-7 (1N NaOH) and the tubes remained on oscillation for further 30 min. The digests were collected, filtered at 100 μm mesh, diluted and read at 405 nm. Results expressed as % recovery of Fe calculated against a calibration curve) are plotted in FIG. 3.

[3] = system: rodents conducted to anemia by iron starvation; experiment: Murine model of anemic therapy (iron-deficient diet); assay type: in vivo, female Wistar rats; conditions: normalized-iron vegetal diet comprising the substance after ID diet, compared to both controls
Method: This in vivo murine study sized the capacity of maltol/ethyl maltol compounded into food to enhance iron uptake in rodents conducted to anemia by iron starvation. For that purpose, 6-wk old female Wistar rats were fed for 28 days a iron-deficient diet (Fe:12 mg/kg), labeled IDD1. A control group received standard diet (Fe:45 mg/kg) (Ctrl1) along the entire experiment. In the second stage, IDD1 rats were randomized for 26 days test diets conceived as follows: the M3 and EM3 groups received cookies with 3% of maltol or 3% ethyl maltol, respectively. The M/EMO group was fed with cookies without maltol/ethyl maltol; while the IDD2 group was maintained at Fe-deficient diet. […] Cookies were produced from corn flour and vegetal fat, and backed at 180° C. for 15 minM, whereas in M3 and EM3 groups a portion (3%) of corn flour was replaced with maltol and ethyl maltol. Animals were kept in room with 12 h light/dark cycle, temperature of 24° C. […], and drinking water ad libitum. […] Serum iron was measured at 623 nm, haemoglobin content (Hb) total iron binding capacity (TIBC), erythrocytes, haemoglobin (Hb), hematocrit (Ht), mean corpuscular volume (MCV), mean corpuscular haemoglobin (MCH), and MCH concentration (MCHC) assessed according to Regula et al. Ann Agric Environ Med 2016;23(2):310-4. Iron transferrin saturation (TSAT) was calculated by the formula: TSAT=(Fe/TIBC)×[…].

Caco-2 cells = experiment: Caco-2 monolayer absorption: ferritin formation; conditions: 1 h contact at 37° C., 23 h re-incubation; Fe 200 μM
Method: Caco-2 cells cultivated and used at passages 24-50 in culture medium, serum-free MEM, were exposed to test substances in culture medium.
(§1) (a) maltol (MAL) and ethyl maltol (EMAL) at 10 mM concentration;
(§2) (c) iron sources: FAC (Fe^III) and ferrous sulfate (FS, Fe^III) at 1:10 eq/eq with respect to AA, at 1:20 eq/eq with respect to CA, and at 1:5 eq/eq with respect to MAL.
(§3) The final Fe concentration was fixed 200 μM with the other molar ratio as listed above, while the solution were then neutralized to pH 6-7.
One hour contact at 37° C. was used for similarity of duodenal contact time. After incubation 1 h the medium was aspirated, cell monolayer washed 3× PBS-EDTA and fresh MEM added. Cells were re-incubated for 23 h to allow ferritin formation, lysed with 400 μl of MPER® lysis buffer, lysate collected, centrifuged for 5′ at 16,000×g, and supernatant collected for analysis. The solutions were filter-sterilized (0.2 μm syringe filter) prior dilution in the culture medium.
Ferritin content of Caco-2 cells was determined by an ELISA kit, results corrected for the baseline values and expressed in relation to total cell protein in ng ferritin/mg cell protein.

[4] = pH 6
Method: as §1, §2, §3
Total iron was determined by inductively-coupled plasma optical emission spectrometry, where both ICP-OES standards and samples were diluted in 0.5% HNO3 in 0-1000 ppb range. Physical classification of iron was assessed after centrifugation (10,000×g, 5 min.), the supernatant was ultrafiltrated with 3kDa MWCO filter 10,000×g, 10 min. Phase distribution was calculated as: iron microparticulate (total Fe−Fe in supernatant), iron nanoparticulate (Fe ultrafiltrate−Fe in supernatant) and soluble iron (Fe ultrafiltrate/total Fe).

[5] = system: inflammatory bowel disease; conditions: animal model of IBD; Minaiyan et al. 2012; cited from earlier work

## CCc1occc(=O)c1O [ethyl maltol]
[1]
  recovery of Fe as 1:3 Fe-ligand complex in competition with non-cathecolic polyphenols (avg.): 95%
  recovery of Fe as 1:3 Fe-ligand complex in competition with oxalates: 89%
  recovery of Fe as 1:3 Fe-ligand complex in competition with phosphate: 98%
  iron competition versus phytate and catecholic polyphenols: limited efficiency
[2]
  yield of extracted iron from vegetal food: increased the yield of extracted iron from vegetal food
  surplus of yields of gastroactive (GA) model over gastropassive (GP) condition: about 10%
[3]
  recovery of iron and hematologic levels: faster recovery of iron and hematologic levels
Caco-2 cells
  ferritin formation in Caco-2 cells: produced soluble iron utilized by enteric cells for ferritin synthesis

## Cc1occc(=O)c1O [maltol]
[1]
  recovery of Fe as 1:3 Fe-ligand complex in competition with non-cathecolic polyphenols (avg.): 95%
  recovery of Fe as 1:3 Fe-ligand complex in competition with oxalates: 89%
  recovery of Fe as 1:3 Fe-ligand complex in competition with phosphate: 98%
  iron competition versus phytate and catecholic polyphenols: limited efficiency
[2]
  yield of extracted iron from vegetal food: increased the yield of extracted iron from vegetal food
  surplus of yields of gastroactive (GA) model over gastropassive (GP) condition: about 10%
[3]
  recovery of iron and hematologic levels: faster recovery of iron and hematologic levels
[4]
  iron solubility / phase distribution: retain the Fe(III) solubility at supplemental levels
[5]
  therapeutic dosage (ED50): 140-240 mg/kg bw
Caco-2 cells
  ferritin formation in Caco-2 cells: produced soluble iron utilized by enteric cells for ferritin synthesis

Source: US20200022944A1, “COMPOSITION OR MEDICAL FOOD TO EXTRACT THE DIETARY IRON AND BOOST ITS BIOAVAILABILITY FOR IRON DEFICIENCY (ID) AND ID-ANEMIA” (TIXUPHARMA DI CARLO GHISALBERTI, priority 2017, published 2020)
